Test system: PC3 cells
Experiment: PC3 prostate cancer cell proliferation (WST)
Assay type: cell-based
Details: Homo sapiens, PC-3; 72 hours; read-out: IC50 PC3 Proliferation
Experimental: PC3 cells were obtained from the American Type Culture Collection (ATCC, Manassas, Va., Cat.# CRL-1435) Two thousand cells from the prostate cancer line PC3 were placed in 50 μL of complete RPMI 1640 media (Invitrogen, Carlsbad, Calif., Cat.#22400-105) with 10% fetal bovine serum (Invitrogen, Carlsbad, Calif., Cat.#10438-026) into each well of 96 well cell culture plates in a hexaplicate sampling pattern. A 50 μL aliquot of test compound (prepared from stock test compounds in DMSO diluted into media) was added to the appropriate well such that the final concentrations of test compound were 200, 40, 8, 1.6, 0.32, 0.064, 0.0128, 0.00256, and 0 μM and the final DMSO concentration was less than or equal to 0.2%.
The plates were incubated for 72 hours 37° C. in an atmosphere of 5% CO2. At the end of this time a 10 μL aliquot of WST solution (Roche Applied Science, Mannheim, Germany) was added into each of the wells. Cells were exposed to the WST solution for 4 hours. A SpectraMax Plus spectrophotometric plate reader (Molecular Devices, Sunnydale, Calif.) was then used to measure the optical density at 450 nm (OD450 nm). Sigmoidal curves were drawn for the dose responses and IC50 values were calculated using the software package GraphPad Prism4 (GraphPad Software, Inc., San Diego, Calif.).

Compound | IC50
O=c1cc(C2CCOCC2)oc2c(-c3ccccc3)cccc12 [Compound 67, 8-Phenyl-2-(tetrahydro-2H-pyran-4-yl)-4H-chromen-4-one] | 95.8 µM
O=c1cc(N2CCOCC2)oc2c(-c3ccoc3)csc12 [Compound 27] | 9.26 µM
CN(C)c1ccc(C#Cc2csc3c(=O)cc(N4CCOCC4)oc23)cc1 [Compound 37] | 2.5 µM
Nc1cccc(C#Cc2csc3c(=O)cc(N4CCOCC4)oc23)c1 [Compound 96] | 24.8 µM
O=C(Nc1ccc(-c2csc3c(=O)cc(N4CCOCC4)oc23)cc1)c1cccnc1 [Compound 55] | 1.05 to 1.5 µM
O=c1cc(N2CCOCC2)oc2c(C#Cc3ccccc3)csc12 [Compound 31, 5-morpholino-3-(phenylethynyl)-7H-thieno[3,2-b]pyran-7-one] | 3.69 µM
O=C(Nc1ccncc1)c1ccc(-c2csc3c(=O)cc(N4CCOCC4)oc23)cc1 [Compound 59] | 17.5 µM
O=c1cc(N2CCOCC2)oc2c(-c3ccc4[nH]ccc4c3)csc12 [Compound 19] | 8.13 µM
O=C(NCc1ccccc1)c1ccc(-c2csc3c(=O)cc(N4CCOCC4)oc23)cc1 [Compound 50, N-benzyl-4-(5-morpholino-7-oxo-7H-thieno[3,2-b]pyran-3-yl)benzamide] | 4.76 µM
CN1CCN(c2ncc(-c3csc4c(=O)cc(N5CCOCC5)oc34)cn2)CC1 [Compound 43] | 9.35 µM
CNc1ccc(-c2csc3c(=O)cc(N4CCOCC4)oc23)cc1 [Compound 41] | 2.07 µM
CN(C(=O)OC(C)(C)C)c1ccc(-c2csc3c(=O)cc(N4CCOCC4)oc23)cc1 [Compound 36] | 2.69 µM
O=c1cc(N2CCOCC2)oc2c(-c3ccncc3)csc12 [Compound 2] | 18.5 µM
O=C(Nc1ccccn1)c1ccc(-c2csc3c(=O)cc(N4CCOCC4)oc23)cc1 [Compound 61] | 5 µM
O=c1cc(N2CCOCC2)oc2c(-c3ccco3)csc12 [Compound 4] | 5.9 µM
CCN(CC)C(=O)c1csc2c(=O)cc(N3CCOCC3)oc12 [Compound 52] | 157 µM
O=C(NCCN1CCOCC1)c1cccc(-c2csc3c(=O)cc(N4CCOCC4)oc23)c1 [Compound 42] | 7.84 µM
O=c1cc(N2CCOCC2)oc2c(C#Cc3cccc(F)c3)csc12 [Compound 39] | 3.31 µM
O=c1cc(N2CCOCC2)oc2c(-c3ccc(Br)cc3)csc12 [Compound 101] | 21.8 µM
COc1ccc(-c2csc3c(=O)cc(N4CCOCC4)oc23)cc1 [Compound 8] | 1.82 µM
COC(=O)c1ccc(-c2csc3c(=O)cc(N4CCOCC4)oc23)cc1 [Compound 44] | 4.39 µM

Compound | IC50
COC(=O)c1scc(-c2csc3c(=O)cc(N4CCOCC4)oc23)c1O [Compound 21, methyl 3-hydroxy-4-(5-morpholino-7-oxo-7H-thieno[3,2-b]pyran-3-yl)thiophene-2-carboxylate] | 34.8 µM
O=c1cc(N2CCOCC2)oc2c(C#Cc3ccsc3)csc12 [Compound 23] | 7.35 µM
O=c1cc(N2CCOCC2)oc2c(-c3cccc(Cl)c3)csc12 [Compound 85, 3-(3-chlorophenyl)-5-morpholino-7H-thieno[3,2-b]pyran-7-one] | 3.45 µM
COc1cc(C#Cc2csc3c(=O)cc(N4CCOCC4)oc23)cc(OC)c1 [Compound 40] | 1.8 µM
O=c1cc(N2CCOCC2)oc2c(-c3ccc4cc[nH]c4c3)csc12 [Compound 35] | 2.7 to 5.59 µM
O=C(Nc1ccccc1)c1csc2c(=O)cc(N3CCOCC3)oc12 [Compound 51, 5-morpholino-7-oxo-N-phenyl-7H-thieno[3,2-b]pyran-3-carboxamide] | 23.8 µM
O=C(Nc1cccc(-c2csc3c(=O)cc(N4CCOCC4)oc23)c1)c1cccnc1 [Compound 46] | 62.1 µM
O=c1cc(N2CCOCC2)oc2c(-c3ccsc3)csc12 [Compound 26] | 5.6 µM
O=c1cc(N2CCOCC2)oc2c(-c3cccs3)csc12 [Compound 14] | 4.36 µM
CN(C)c1ccc(NC(=O)c2cccc(-c3csc4c(=O)cc(N5CCOCC5)oc34)c2)cc1 [Compound 65] | 12.7 µM
O=C(NCc1ccc(Cl)cc1)c1csc2c(=O)cc(N3CCOCC3)oc12 [Compound 88] | 22 µM
CN1CCOc2cc(-c3csc4c(=O)cc(N5CCOCC5)oc34)ccc21 [Compound 22] | 1.05 µM
O=c1cc(N2CCOCC2)oc2c(-c3ccc(Cl)c(Cl)c3)csc12 [Compound 18] | 37.6 µM
Cc1ccc(-c2csc3c(=O)cc(N4CCOCC4)oc23)cc1 [Compound 15] | 4.48 µM
O=c1cc(N2CCOCC2)oc2c(-c3ccc(C(F)(F)F)cc3)csc12 [Compound 20] | 774 µM
O=C(NCCN1CCOCC1)c1csc2c(=O)cc(N3CCOCC3)oc12 [Compound 90] | 19.9 µM
O=c1cc(N2CCOCC2)oc2c(-c3ccc(Cl)cc3)csc12 [Compound 17, 3-(4-chlorophenyl)-5-morpholino-7H-thieno[3,2-b]pyran-7-one] | 29 µM
O=c1cc(N2CCOCC2)oc2c(-c3cccnc3)csc12 [Compound 3, 5-morpholino-3-(pyridin-3-yl)-7H-thieno[3,2-b]pyran-7-one] | 10.9 µM
O=c1cc(N2CCOCC2)oc2c(C#CCO)csc12 [Compound 24] | 28.2 µM
O=c1cc(N2CCOCC2)oc2c(-c3ccc(O)c(Cl)c3)csc12 [Compound 93] | 6.14 to 9.43 µM
COC(=O)c1cccc(-c2csc3c(=O)cc(N4CCOCC4)oc23)c1 [Compound 45] | 4.67 µM

Compound | IC50
O=c1cc(N2CCOCC2)oc2c(-c3cccc(C(F)(F)F)c3)csc12 [Compound 92] | 6.28 µM
O=C(Nc1ccncc1)c1cccc(-c2csc3c(=O)cc(N4CCOCC4)oc23)c1 [Compound 64] | 17.9 µM
S=c1cc(N2CCOCC2)oc2c(-c3ccccc3)cccc12 [Compound 68, 2-morpholino-8-phenyl-4H-chromene-4-thione] | 34.8 µM
Cc1cccc(-c2csc3c(=O)cc(N4CCOCC4)oc23)c1 [Compound 16] | 6.03 µM
O=c1cc(N2CCOCC2)oc2c(-c3ccc(O)cc3)csc12 [Compound 98] | 6.12 µM
O=c1cc(N2CCOCC2)oc2c(Cc3ccccc3)csc12 [Compound 1] | 20.2 µM
O=c1cc(N2CCOCC2)oc2c(-c3cccc(O)c3)csc12 [Compound 99] | 16.6 µM
O=c1cc(N2CCOCC2)oc2c(-c3ccc(Cl)nc3)csc12 [Compound 32] | 9.01 µM
O=C(O)c1ccc(-c2csc3c(=O)cc(N4CCOCC4)oc23)cc1 [Compound 100] | 129 µM
O=C(Nc1ccccn1)c1cccc(-c2csc3c(=O)cc(N4CCOCC4)oc23)c1 [Compound 66] | 6.91 µM
CN(C)c1ccc(C(=O)Nc2cccc(-c3csc4c(=O)cc(N5CCOCC5)oc34)c2)cc1 [Compound 49] | 3.18 µM
COc1cc(-c2csc3c(=O)cc(N4CCOCC4)oc23)ccc1N [Compound 95] | 81.9 µM
O=C(NCc1ccccc1)c1cccc(-c2csc3c(=O)cc(N4CCOCC4)oc23)c1 [Compound 63] | 7.84 µM
O=C(NCc1ccccc1)c1csc2c(=O)cc(N3CCOCC3)oc12 [Compound 53] | 113 µM
O=C(Nc1cccnc1)c1ccc(-c2csc3c(=O)cc(N4CCOCC4)oc23)cc1 [Compound 58] | 16.7 µM
COc1cccc(-c2csc3c(=O)cc(N4CCOCC4)oc23)c1 [Compound 29] | 4.76 µM
O=C(Nc1ccc(-c2csc3c(=O)cc(N4CCOCC4)oc23)cc1)c1ccccc1 [Compound 34] | 2 µM
O=c1cc(N2CCOCC2)oc2c(-c3cc4ccccc4[nH]3)csc12 [Compound 12] | 8.55 µM
O=c1cc(N2CCOCC2)oc2c(-c3ccc4c(c3)OCO4)csc12 [Compound 7] | 1.74 µM

Test system: MCF7 breast cancer cells
Experiment: Mammosphere cancer stem cell inhibition assay
Assay type: cell-based
Details: 1 μM; first experiment
Experimental: A mammosphere cancer stem cell inhibition assay was set up using literature methods (T. M. Phillips et al. J. Natl. Cancer I. 2006, 98, 1777-1785, “Mammalian target of rapamycin contributes to the acquired apoptotic resistance of human mesothelioma multicellular spheroids”) using a subset of MCF7 breast cancer cells that posses the ability to evade anchorage independent apoptosis. Commercially available MCF7 breast cancer cells were cultured in MEM supplemented with 0.01 mg/mL of bovine insulin and 10% FBS at 37° C. in humidified atmosphere (5% CO2). Floating cells in the 2-day cultures were collected, washed, and resuspended in DMEM-F12 (50:50) supplemented with 0.4% BSA, 5 μg/mL bovine insulin, 20 ng/mL bFGF, and 10 ng/mL EGF. Cells were then passed through a […] sieve to remove any cell clusters and adjusted to a density of 10,000 cells/mL. Approximately 500 cells were plated in quadruplicate in a sterile poly-HEMA-treated 96-well plate. Cells were then treated with either control or test solutions consisting of the kinase inhibitor Lapatinib (1 μM), Cpd 28 (1 or 10 μM), Cpd 55 (1 or 10 μM), The numbers of mammospheres (clusters of cells numbering more than 4 or 5 per cluster) were then counted after 5-7 days.

Compound | inhibition of mammosphere production versus control
O=C(Nc1ccc(-c2csc3c(=O)cc(N4CCOCC4)oc23)cc1)c1cccnc1 [Compound 55] | approximately 60%

Same assay, conditions: 1 μM; first experiment, control 38±4

Compound | number of mammospheres
O=C(Nc1ccc(-c2csc3c(=O)cc(N4CCOCC4)oc23)cc1)c1cccnc1 [Compound 55] | 16±2 mammospheres

Same assay, conditions: 1 μM; separate experiment

Compound | inhibition of mammosphere production versus control
CN1CCN(c2ncc(-c3csc4c(=O)cc(N5CCOCC5)oc34)cn2)CC1 [Compound 43] | ~53%

Same assay, conditions: 1 μM; separate experiment, control 32±6

Compound | number of mammospheres
CN1CCN(c2ncc(-c3csc4c(=O)cc(N5CCOCC5)oc34)cn2)CC1 [Compound 43] | 18±6 mammospheres

Same assay, conditions: 10 μM; first experiment

Compound | inhibition of mammosphere production versus control
O=C(Nc1ccc(-c2csc3c(=O)cc(N4CCOCC4)oc23)cc1)c1cccnc1 [Compound 55] | ~86%

Same assay, conditions: 10 μM; first experiment, control 38±4

Compound | number of mammospheres
O=C(Nc1ccc(-c2csc3c(=O)cc(N4CCOCC4)oc23)cc1)c1cccnc1 [Compound 55] | 5±1 mammospheres

Same assay, conditions: 10 μM; separate experiment

Compound | inhibition of mammosphere production versus control
CN1CCN(c2ncc(-c3csc4c(=O)cc(N5CCOCC5)oc34)cn2)CC1 [Compound 43] | ~58%

Same assay, conditions: 10 μM; separate experiment, control 32±6

Compound | number of mammospheres
CN1CCN(c2ncc(-c3csc4c(=O)cc(N5CCOCC5)oc34)cn2)CC1 [Compound 43] | 16±6 mammospheres

— patent publication US9981983B2, “Thienopyranones as kinase inhibitors” (SignalRx Pharmaceuticals, Inc., priority 2008, dated 2018)
